Here are results for four molecules from patent publication US5583138A, “17β-substituted 4-azaandrostane derivatives, pharmaceutical compositions containing them and process for preparing same” (Richter Gedeon Vegyeszeti Gyar Rt., priority 1992, dated 1996).

Structures are written as SMILES.

The assay concerns the target T1, steroid 5α-reductase enzyme (Homo sapiens, UniProt P31213).
T1 construct: Frozen human hyperplastic prostate was used for preparation of the enzyme; from tissue; host or cells: human hyperplastic prostate (frozen), sediment of 100000×g ultracentrifugation
T1 sequence (P31213 1-254): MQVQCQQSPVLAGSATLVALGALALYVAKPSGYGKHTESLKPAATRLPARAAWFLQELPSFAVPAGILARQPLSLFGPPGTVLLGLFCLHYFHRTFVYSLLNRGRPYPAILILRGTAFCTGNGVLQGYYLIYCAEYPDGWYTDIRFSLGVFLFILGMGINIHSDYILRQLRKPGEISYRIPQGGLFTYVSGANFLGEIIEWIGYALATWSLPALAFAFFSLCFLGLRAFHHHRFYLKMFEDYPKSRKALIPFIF
As to the kind of experiment: 5α-reductase inhibition: conversion of [3H]-testosterone to DHT and androstanediol by enzyme from human hyperplastic prostate. It counts as biochemical. To be noted: 0.5 μM [3H]-testosterone, 500 μM NADPH, pH=5.1, 37° C., 10 minutes, read-out: IC50 (concentration decreasing the percentage conversion of testosterone by 50% in comparison to the control value).

For the molecule `CC1CCCC(C)N1C(=O)[C@H]1CC[C@H]2[C@@H]3CC[C@H]4NC(=O)C=C[C@]4(C)[C@H]3CC[C@]12C` (stereo partly drawn) [17β-(2,6-dimethylpiperidinocarbonyl)-3-oxo-4-aza-5α-androst-1-ene], the IC50 is 0.00859 µM.

As to `C[C@]12C=CC(=O)N[C@@H]1CC[C@@H]1[C@@H]2CC[C@]2(C)[C@@H](C(=O)N3CCCCCCC3)CC[C@@H]12` [17β-(heptamethyleneiminocarbonyl)-3-oxo-4-aza-5α-androst-1-ene], the IC50 worked out at 0.00864 µM.

With `C[C@]12C=CC(=O)N[C@@H]1CC[C@@H]1[C@@H]2CC[C@]2(C)[C@@H](C(=O)N3CCCCCC3)CC[C@@H]12` [17β-(hexamethyleneiminocarbonyl)-3-oxo-4-aza-5α-androst-1-ene], the IC50 is 0.0131 µM.

On to `CC(C)(C)NC(=O)[C@H]1CC[C@H]2[C@@H]3CC[C@H]4NC(=O)C=C[C@]4(C)[C@H]3CC[C@]12C` [MK-906, 17β-[N-(1,1-Dimethylethyl)carbamoyl]-3-oxo-4-aza-5α-androst-1-ene, reference compound], for which the IC50 stood at 0.0184 µM.
